Assay results reported in ChEMBL document CHEMBL5154688, “Design, Synthesis, and Characterization of I-BET567, a Pan-Bromodomain and Extra Terminal (BET) Bromodomain Oral Candidate” (J Med Chem, 2022).
Values after ≈ are worked out from the molar mass of the structure shown.

Columns and labels:
[1] = target: T1, Bromodomain-containing protein 4 (Homo sapiens, UniProt O60885); test: Inhibition of BRD4 BD1 (unknown origin) incubated for 30 mins in presence of fluorescent ligand by TR-FRET method
[2] = target: T1, Bromodomain-containing protein 4; test: Inhibition of BRD4 BD2 (unknown origin) incubated for 30 mins in presence of fluorescent ligand by TR-FRET method
[3] = Artificial membrane permeability of the compound; type: ADME; settings: PAMPA; read-out: permeability
[4] = Solubility of the compound in saline by CLND method; type: physicochemical
[5] = Solubility of the compound at pH 6.5 in fast state simulated intestinal fluid incubated for 16 hrs by HPLC analysis; type: physicochemical; settings: fasted state simulated intestinal fluid (FaSSIF)
[6] = target: C-C motif chemokine 2 (Homo sapiens, UniProt P13500); test: Inhibition of MCP-1 in LPS-stimulated human whole blood incubate for 24 hrs by immuno assay; type: tissue-based
Sequence of C-C motif chemokine 2 (P13500 whole entry): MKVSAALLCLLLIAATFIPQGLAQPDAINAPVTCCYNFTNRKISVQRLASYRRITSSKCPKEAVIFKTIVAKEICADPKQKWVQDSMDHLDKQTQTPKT

[7] = target: Cytochrome P450 3A4 (Homo sapiens, UniProt P08684); test: Inhibition of CYP3A4 (unknown origin); type: ADME
Sequence of Cytochrome P450 3A4 (P08684 whole entry): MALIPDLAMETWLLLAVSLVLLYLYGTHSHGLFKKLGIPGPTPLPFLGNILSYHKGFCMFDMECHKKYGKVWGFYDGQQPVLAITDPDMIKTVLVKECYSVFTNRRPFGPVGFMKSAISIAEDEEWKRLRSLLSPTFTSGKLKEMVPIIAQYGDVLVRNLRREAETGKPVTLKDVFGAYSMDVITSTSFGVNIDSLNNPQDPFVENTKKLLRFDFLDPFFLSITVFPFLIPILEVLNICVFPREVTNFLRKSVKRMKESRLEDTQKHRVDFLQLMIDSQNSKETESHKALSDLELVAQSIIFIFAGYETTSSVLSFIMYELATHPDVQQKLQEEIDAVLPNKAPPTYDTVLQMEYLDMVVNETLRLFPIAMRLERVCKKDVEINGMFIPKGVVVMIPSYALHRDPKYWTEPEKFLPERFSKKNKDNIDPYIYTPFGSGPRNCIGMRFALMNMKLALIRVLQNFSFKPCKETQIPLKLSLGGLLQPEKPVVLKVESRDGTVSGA

[8] = target: Voltage-gated inwardly rectifying potassium channel KCNH2 (Homo sapiens, UniProt Q12809); test: Inhibition of hERG; type: toxicity
Sequence of Voltage-gated inwardly rectifying potassium channel KCNH2 (Q12809 whole entry): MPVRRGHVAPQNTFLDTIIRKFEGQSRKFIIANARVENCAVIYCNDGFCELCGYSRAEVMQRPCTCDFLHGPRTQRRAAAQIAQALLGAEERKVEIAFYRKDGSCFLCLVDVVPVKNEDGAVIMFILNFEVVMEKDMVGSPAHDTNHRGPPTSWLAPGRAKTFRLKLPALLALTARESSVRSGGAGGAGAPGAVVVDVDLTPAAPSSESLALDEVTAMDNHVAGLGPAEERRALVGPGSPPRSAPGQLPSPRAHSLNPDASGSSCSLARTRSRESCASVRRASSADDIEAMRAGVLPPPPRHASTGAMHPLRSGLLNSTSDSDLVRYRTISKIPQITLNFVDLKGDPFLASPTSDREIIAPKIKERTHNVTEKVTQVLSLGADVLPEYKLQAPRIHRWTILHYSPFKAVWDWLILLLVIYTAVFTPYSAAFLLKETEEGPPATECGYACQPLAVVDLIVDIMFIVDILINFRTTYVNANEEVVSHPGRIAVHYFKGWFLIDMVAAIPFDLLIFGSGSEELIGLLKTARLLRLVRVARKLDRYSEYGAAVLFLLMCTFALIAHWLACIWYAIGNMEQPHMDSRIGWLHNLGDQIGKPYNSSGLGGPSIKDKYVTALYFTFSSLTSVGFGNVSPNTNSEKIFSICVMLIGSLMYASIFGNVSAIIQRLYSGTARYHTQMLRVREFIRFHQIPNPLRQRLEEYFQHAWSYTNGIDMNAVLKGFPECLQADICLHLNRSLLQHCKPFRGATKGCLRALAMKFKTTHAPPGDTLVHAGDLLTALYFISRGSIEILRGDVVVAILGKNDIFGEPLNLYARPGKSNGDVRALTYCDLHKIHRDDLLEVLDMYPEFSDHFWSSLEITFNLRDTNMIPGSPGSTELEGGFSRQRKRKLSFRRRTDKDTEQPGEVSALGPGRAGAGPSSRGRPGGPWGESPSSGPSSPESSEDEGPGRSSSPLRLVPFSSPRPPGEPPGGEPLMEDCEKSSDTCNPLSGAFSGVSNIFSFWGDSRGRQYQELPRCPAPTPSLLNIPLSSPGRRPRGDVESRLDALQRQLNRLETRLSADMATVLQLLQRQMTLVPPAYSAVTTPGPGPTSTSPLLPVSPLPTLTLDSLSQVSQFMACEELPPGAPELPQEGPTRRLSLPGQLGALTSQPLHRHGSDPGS

[9] = Intrinsic clearance in dog hepatocytes incubated upto 45 mins by LC-MS/MS analysis; type: ADME, cell-based, Canis lupus familiaris, Hepatocyte; settings: 0.75 h
[10] = Intrinsic clearance in human hepatocytes measured after 120 mins by LC-MS/MS analysis; type: ADME, cell-based, Hepatocyte; settings: 2 h
[11] = Intrinsic clearance in rat hepatocytes after 60 mins by LC-MS/MS analysis; type: ADME, cell-based, Hepatocyte; settings: 1 h

In the case of `CC(=O)N1c2ccc(C(N)=O)cc2[C@H](Nc2ccc(C)cn2)C[C@@H]1C`, the IC50 [1] is reported as 794 nM, the IC50 [2] is reported as 158 nM and the Papp [3] is reported as 8.2 ×10⁻⁶ cm/s. The solubility kinetic [4] was ≥ 143 µg/mL.
`CCNC(=O)c1ccc2c(c1)[C@H](Nc1ccc(C)cn1)C[C@H](C)N2C(C)=O` gave an IC50 [1] of 794 nM, an IC50 [2] of 158 nM and a solubility at 16 h [5] of 44 µg/mL (≈ 120 µM). For the same compound, the Papp [3] was 25 ×10⁻⁶ cm/s.
Compound `CC(=O)N1c2ccccc2[C@H](Nc2cnc(C)cn2)C[C@@H]1C` has an IC50 [1] of 1000 nM, an IC50 [2] of 501 nM and a solubility at 16 h [5] of 270 µg/mL (≈ 911 µM). The Papp [3] was 54 ×10⁻⁶ cm/s.
Compound `CCNC(=O)c1ccc2c(c1)[C@H](Nc1ccc(Cl)cn1)C[C@H](C)N2C(C)=O` has an IC50 [1] of 316 nM, an IC50 [2] of 79.4 nM and a solubility at 16 h [5] of 90 µg/mL (≈ 233 µM). It also gave a Papp [3] of 35 ×10⁻⁶ cm/s.
`CC(=O)N1c2ccc(C(N)=O)cc2[C@H](Nc2cccc(Cl)c2)C[C@@H]1C` showed an IC50 [1] of 200 nM, an IC50 [2] of 20 nM and a solubility at 16 h [5] of 33 µg/mL (≈ 92.2 µM). For the same compound, the Papp [3] was 40 ×10⁻⁶ cm/s.
`CC(=O)N1c2ccccc2[C@H](Nc2cnc(C#N)cn2)C[C@@H]1C` gave an IC50 [1] of 1260 nM, an IC50 [2] of 1260 nM and a solubility at 16 h [5] of 955 µg/mL (≈ 3110 µM). It also gave a Papp [3] of 32 ×10⁻⁶ cm/s.
`CC(=O)N1c2ccc(F)cc2[C@H](Nc2cnc(C#N)cn2)C[C@@H]1C` gave an IC50 [1] of 1260 nM, an IC50 [2] of 1000 nM and a Papp [3] of 30 ×10⁻⁶ cm/s. It also gave a solubility kinetic [4] of 99 µg/mL (≈ 304 µM).
For `CC(=O)N1c2ccc(C#N)cc2[C@H](Nc2ccc(C#N)cn2)C[C@@H]1C`, the IC50 [1] was 501 nM, the IC50 [2] was 158 nM and the solubility at 16 h [5] was 279 µg/mL (≈ 842 µM). The Papp [3] was 31 ×10⁻⁶ cm/s.
In the case of `CC(=O)N1c2ccc(F)cc2[C@H](Nc2cnc(C)cn2)C[C@@H]1C`, the IC50 [1] is reported as 1260 nM, the IC50 [2] is reported as 631 nM and the solubility at 16 h [5] is reported as > 1000 µg/mL. The Papp [3] was 52 ×10⁻⁶ cm/s.
Compound `CC(=O)N1c2ccc(C(N)=O)cc2[C@H](Nc2ccc(Cl)cn2)C[C@@H]1C` has an IC50 [1] of 251 nM, an IC50 [2] of 79.4 nM and a solubility at 16 h [5] of 884 µg/mL (≈ 2460 µM). For the same compound, the Papp [3] was 15 ×10⁻⁶ cm/s, the IC50 [6] was 398 nM and the IC50 [7] was > 39800 nM. The IC50 [8] was > 50100 nM.
With `CC(=O)N1c2ccc(F)cc2[C@H](Nc2ccc(C#N)cn2)C[C@@H]1C` the IC50 [1] was 794 nM, the IC50 [2] was 316 nM and the solubility at 16 h [5] was 558 µg/mL (≈ 1720 µM). For the same compound, the Papp [3] was 51 ×10⁻⁶ cm/s.
Work on `CC(=O)N1c2ccc(C#N)cc2[C@H](Nc2cnc(C#N)cn2)C[C@@H]1C` yielded an IC50 [1] of 501 nM, an IC50 [2] of 501 nM and a solubility at 16 h [5] of 60 µg/mL (≈ 181 µM). It also gave a Papp [3] of 19 ×10⁻⁶ cm/s.
For `CCNC(=O)c1ccc2c(c1)[C@H](Nc1ccc(F)cn1)C[C@H](C)N2C(C)=O`, the IC50 [1] was 794 nM, the IC50 [2] was 158 nM and the Papp [3] was 23 ×10⁻⁶ cm/s. For the same compound, the solubility kinetic [4] was ≥ 126 µg/mL.
Work on `CCNC(=O)c1ccc2c(c1)[C@H](Nc1ncc(Cl)cn1)C[C@H](C)N2C(C)=O` yielded an IC50 [1] of 100 nM, an IC50 [2] of 79.4 nM and a solubility at 16 h [5] of 82 µg/mL (≈ 211 µM). For the same compound, the Papp [3] was < 18 ×10⁻⁶ cm/s.
In the case of `CCNC(=O)c1ccc2c(c1)[C@H](Nc1cnc(C#N)cn1)C[C@H](C)N2C(C)=O`, the IC50 [1] is reported as 501 nM, the IC50 [2] is reported as 1000 nM and the Papp [3] is reported as 0.3 ×10⁻⁶ cm/s. The solubility kinetic [4] was ≥ 73 µg/mL.
With `CCNC(=O)c1ccc2c(c1)[C@H](Nc1ccc(C#N)cn1)C[C@H](C)N2C(C)=O` the IC50 [1] was 200 nM, the IC50 [2] was 100 nM and the solubility at 16 h [5] was > 1000 µg/mL. For the same compound, the Papp [3] was 4.6 ×10⁻⁶ cm/s, the IC50 [6] was 251 nM and the IC50 [7] was > 39800 nM. The CLH [9] was < 1.26 mL/min/g, the CLH [10] was < 0.87 mL/min/g and the IC50 [8] was > 50100 nM. The CLH [11] was 4.3 mL/min/g.
With `CC(=O)N1c2ccccc2[C@H](Nc2ccc(C#N)cn2)C[C@@H]1C` the IC50 [1] was 1000 nM, the IC50 [2] was 316 nM and the solubility at 16 h [5] was 533 µg/mL (≈ 1740 µM). It also gave a Papp [3] of 48 ×10⁻⁶ cm/s.
